Patent US20030166721A1, “Choline derivative for the treatment of alzheimer's disease” (priority 2000, published 2003)

Legend:
Wistar rats [1] = test: EEG spectral qualitative and quantitative analysis in freely moving rats after i.p. administration; assay type: in vivo, rat; conditions: for EEG frequency band 0.25-3 Hz / EEG frequency band 3-6 Hz / EEG frequency band 6-9 Hz / EEG frequency band 9-12 Hz / EEG frequency band 12-16 Hz: after i.p. administration, % ± SEM; for Effect of atropine given 15 min before the compound: atropine pretreatment; for EEG total power (fronto-parietal cortex), Baseline: before i.p. injection (vol. 0.5 ml); for EEG total power (fronto-parietal cortex), Baseline / EEG total power (fronto-parietal cortex), 15′ / EEG total power (fronto-parietal cortex), 30′ / EEG total power (fronto-parietal cortex), 45′ / EEG total power (fronto-parietal cortex), 60′ / EEG total power (fronto-parietal cortex), 75′ / EEG total power (fronto-parietal cortex), 90′: mean ± SEM, 7 tests; for EEG total power (fronto-parietal cortex), 15′ / EEG total power (fronto-parietal cortex), 30′ / EEG total power (fronto-parietal cortex), 45′ / EEG total power (fronto-parietal cortex), 60′ / EEG total power (fronto-parietal cortex), 75′ / EEG total power (fronto-parietal cortex), 90′: i.p. (vol. 0.5 ml)
Description: Young male Wistar rats (200-260) were used in the experiments, housed in a standard temperature and humidity conditions, with food and water ad libitum. […] After surgery all animals were housed 48 h to allow a complete recovery. 48 Hours after electrode implantation, the animals, placed in a transparent box and freely moving, were connected with an electroencephalograph and the electrocortical activity was continuously monitored and recorded. […] Qualitative and quantitative analysis on the electrocortical activity EEG recording was subsequently carried out. The animals were divided in 4 groups, the first group acted as the control, the second received cytidine-5′-diphosphocholine (CDP-choline), the third and fourth received PC-1 and PC-2, respectively (pivaloylcholine iodide and pivaloyleholine trimethylacetate, respectively). The control group received an equal volume of saline solution by the same procedure. […] Statistical analysis was performed by analysis of variance (ANOVA) for multiple measurements followed, if significant, by the post-hoc Tuckey-Kramer test. A comparison between groups was performed to exclude any individual variability.

Wistar rats [2] = test: Behavioural and EEG effects in rats at different doses; assay type: in vivo, rat
Description: Young male Wistar rats (200-260) were used in the experiments, housed in a standard temperature and humidity conditions, with food and water ad libitum.
The animals, anaesthetised with chloral hydrate (400 mg/kg) […], were stereotaxically implanted (Kopft Instruments) with cortical electrodes (n=4) onto the fronto-parietal region of the neocortex on both cerebral hemispheres, to record EEG. After surgery all animals were housed 48 h to allow a complete recovery.
48 Hours after electrode implantation, the animals, placed in a transparent box and freely moving, were connected with an electroencephalograph and the electrocortical activity was continuously monitored and recorded. After a 30 min control time, the compounds under test were intraperitoneally administered and EEG recording was continued for 90-120 min
EEG was recorded by computerised 24-channels apparatus (Vega 24, Galileo type, ESA-OTE Biomedica, Florence, Italy), while the spectrum activity was quantitatively analysed by a Berg Fourier analyser (ESA-OTE Biomedica, Florence, Italy). The total EEG power (0.25-16 Hz range) was divided into 5 variable frequency bands: δ 0.25-3 Hz, θ 3-6; α1 6-9; α2 9-12 and β12-16 Hz.
The EEG patterns and behavioral effects observed in the rat after administration of the choline derivatives and of the vehicle is reported in 5 Tab. 3. Such effects can be ascribed to the changes of EEG spectrum total power. An […] in EEG total power is related with the presence of slow frequency waves (synchronisation), whereas an […] thereof is related with the presence of rapid frequency waves (desynchronisation).

rats = test: Synergistic effect with tacrine: qEEG of neocortical activity in rats; assay type: in vivo, rat; conditions: n=7; for EEG power (qEEG of neocortical activity), 15″ / EEG power (qEEG of neocortical activity), 30″ / EEG power (qEEG of neocortical activity), 45″ / EEG power (qEEG of neocortical activity), 60″ / EEG power (qEEG of neocortical activity), 75″ / EEG power (qEEG of neocortical activity), 90″ / EEG power (qEEG of neocortical activity), 105″ / EEG power (qEEG of neocortical activity), 120″ / EEG power (qEEG of neocortical activity), 135″: rats i.p., PC-1/PC-2 15 μmol/2 ml/kg, THA 5 mg/kg 30 min before, atropine 0.1 mg/kg 15 min before; for EEG power (qEEG of neocortical activity), Baseline: before i.p. treatment
Description: Results reported in Table 5 show the synergistic effect of the combination of tacrine with the choline derivatives of the present invention.
Vehicle: 2 ml/Kg; all drugs were administered i.p., PC-1 and PC-2 at corresponding equimolar doses (15 μmol/2 ml/kg^−1); THA (tacrine) (5 mg/kg) was administered 30 min before compounds; atropine (0.1 mg/kg) was injected 15 min before PC-1 and PC-2. The number of animals was 7 per each group. Values represent EEG power (μV/s).

[3] = target: T1, Choline Specific Transport System (HUCT) (Rattus norvegicus, UniProt Q9JMD7); test: EEG after ICV Hemicholinium-3 (choline uptake blocker) pretreatment; assay type: in vivo; conditions: rats, ICV 1 μg-0.1 ng
T1 construct: from tissue; host or cells: brain of living Wistar rats (in vivo, ICV microinfusion, EEG read-out)
T1 sequence (Q9JMD7 1-580): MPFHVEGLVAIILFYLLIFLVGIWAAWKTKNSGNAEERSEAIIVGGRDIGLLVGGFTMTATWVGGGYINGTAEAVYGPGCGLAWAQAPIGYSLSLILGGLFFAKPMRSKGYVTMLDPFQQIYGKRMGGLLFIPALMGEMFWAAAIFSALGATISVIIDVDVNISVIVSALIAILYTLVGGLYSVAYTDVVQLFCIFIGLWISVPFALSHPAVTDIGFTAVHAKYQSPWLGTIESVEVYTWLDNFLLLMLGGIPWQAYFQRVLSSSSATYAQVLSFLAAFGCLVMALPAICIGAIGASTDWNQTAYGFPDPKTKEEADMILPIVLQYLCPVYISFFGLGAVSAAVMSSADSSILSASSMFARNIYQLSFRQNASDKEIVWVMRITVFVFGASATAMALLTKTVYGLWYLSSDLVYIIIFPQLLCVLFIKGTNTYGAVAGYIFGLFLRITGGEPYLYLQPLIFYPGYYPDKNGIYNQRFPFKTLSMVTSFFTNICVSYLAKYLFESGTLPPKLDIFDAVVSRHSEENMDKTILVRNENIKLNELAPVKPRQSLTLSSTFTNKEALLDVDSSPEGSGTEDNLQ
Description: FIG. 4B—Effect on EEG spectrum power after treatment with PC-1 (5 mg i.p.) administered 15 min after microinfusion of Hch3 (0.1 ng/0.5 μl) in the III ventricule. As in FIG. 4a, time (min) is reported in abscissa, the EEG spectrum power expressed as μV^2/s is reported in ordinate. Graphics report the EEG spectrum total power (0.25-16 Hz).

Compound	Time to onset of EEG desynchronization and significant decrease in EEG total power (Wistar rats [1]; 5 mg i.p.) [min]	EEG frequency band 0.25-3 Hz (Wistar rats [1])	EEG frequency band 3-6 Hz (Wistar rats [1])	EEG frequency band 6-9 Hz (Wistar rats [1]) [%]	EEG frequency band 9-12 Hz (Wistar rats [1]) [%]	EEG frequency band 12-16 Hz (Wistar rats [1])	Effect of atropine given 15 min before the compound (Wistar rats [1])	EEG total power (fronto-parietal cortex), Baseline (Wistar rats [1])	EEG total power (fronto-parietal cortex), 15′ (Wistar rats [1])	EEG total power (fronto-parietal cortex), 30′ (Wistar rats [1])	EEG total power (fronto-parietal cortex), 45′ (Wistar rats [1])	EEG total power (fronto-parietal cortex), 60′ (Wistar rats [1])	EEG total power (fronto-parietal cortex), 75′ (Wistar rats [1])	EEG total power (fronto-parietal cortex), 90′ (Wistar rats [1])	Behaviour (Wistar rats [2]; 5 mg)	EEG Activity (change of EEG total power) (Wistar rats [2]; 5 mg)	Behaviour (Wistar rats [2]; 50 mg)	EEG Activity (change of EEG total power) (Wistar rats [2]; 50 mg)	EEG power (qEEG of neocortical activity), 15″ (rats) [μV/s]	EEG power (qEEG of neocortical activity), 30″ (rats) [μV/s]	further results
pivaloylcholine trimethylacetate [PC-2]	≤ 15	2.4 ± 1.3(**) %	21.3 ± 0.9%	22.3 ± 1.3	13.5 ± 0.7	22.5 ± 1.6(*) %	antagonize the effects	93 ± 3.5	50 ± 1.9(**)	55 ± 2.5(*)	90 ± 3.3	132 ± 1.5(*)	96 ± 2.7	90 ± 3.6	Alert response	Decrease	Convulsions and death (50%)	Peaks	58.5	64.5	Change of slow EEG spectrum components (FIG. 3) (Wistar rats [1]): decrease in slow components (delta and theta) of the spectrum; Duration of the decrease in EEG total power (Wistar rats [1]; 5 mg i.p.): about 30 min; EEG 60 min after administration (Wistar rats [1]; 5 mg i.p., 60 min): rapid frequency activity (about 16 Hz) and significant increase (P<0.01) in EcoG total power; EEG power (qEEG of neocortical activity), 45″ (rats): 98 μV/s; EEG power (qEEG of neocortical activity), 60″ (rats): 103 μV/s; EEG power (qEEG of neocortical activity), 75″ (rats): 97.5 μV/s; EEG power (qEEG of neocortical activity), 90″ (rats): 110.3 μV/s; EEG power (qEEG of neocortical activity), 105″ (rats): 124 μV/s; EEG power (qEEG of neocortical activity), 120″ (rats): 120.5 μV/s; EEG power (qEEG of neocortical activity), 135″ (rats): 117.5 μV/s; EEG effect with tacrine given 30 min before (rats; rats, THA 5 mg/Kg i.p. 30 min before 15 μmol i.p.): long-lasting EEG desynchronization and significant decrease in EEG spectrum total power; EEG power (qEEG of neocortical activity), Baseline (rats; rats): 105 μV/s
Nc1c2c(nc3ccccc13)CCCC2 [THA, tacrine, reference compound]	–	–	–	–	–	–	–	–	–	–	–	–	–	–	–	–	–	–	72.5	68	EEG power (qEEG of neocortical activity), 45″ (rats): 75.5 μV/s; EEG power (qEEG of neocortical activity), 60″ (rats): 97.5 μV/s; EEG power (qEEG of neocortical activity), 75″ (rats): 122 μV/s; EEG power (qEEG of neocortical activity), 90″ (rats): 129.5 μV/s; EEG power (qEEG of neocortical activity), 105″ (rats): 135 μV/s; EEG power (qEEG of neocortical activity), 120″ (rats): 137 μV/s; EEG power (qEEG of neocortical activity), 135″ (rats): 119.5 μV/s; EEG power (qEEG of neocortical activity), Baseline (rats; rats): 118 μV/s
C[N+](C)(C)CCOP(=O)(O)OP(=O)([O-])OC[C@H]1O[C@@H](n2ccc(N)nc2=O)[C@H](O)[C@@H]1O [CDP-choline, cytidine-5′-diphosphocholine, reference compound]	60	3.8 ± 1.3(*) %	19.2 ± 1.5(*) %	31.5 ± 0.9	18.5 ± 1.7	20.5 ± 1.3%	antagonize the effects	98 ± 3.6	93 ± 2.9	271 ± 3.2	89 ± 2.9	65 ± 2(*)	95 ± 3.3	103 ± 2.6	Alert response	Decrease	Sedation	No effects	–	–	Behaviour (Wistar rats [2]; 1 mg): No effects; EEG Activity (change of EEG total power) (Wistar rats [2]; 1 mg): No effects; Behaviour (Wistar rats [2]; 25 mg): Sedation; EEG Activity (change of EEG total power) (Wistar rats [2]; 25 mg): Increase
C[N+]1(C)CCOC(O)(c2ccc(-c3ccc(C4(O)C[N+](C)(C)CCO4)cc3)cc2)C1.[Br-].[Br-] (centres unmarked) [Hch3, Hemicholinium-3, reference compound]	–	–	–	–	–	–	–	–	–	–	–	–	–	–	–	–	–	–	–	–	Behavioural and EEG effect of ICV administration [3]: behavioural sedation and sleep, EEG synchronization and increase in EEG total power
